The text below walks through data of paper PMC10246557, “Kinetic and inhibition studies on human Jumonji-C (JmjC) domain-containing protein 5” (RSC Chemical Biology, 2023).

The target in assay [1] is T1, human JMJD5 (Homo sapiens, UniProt Q8N371).
T1 construct: made in house; host or cells: Escherichia coli BL21(DE3)
Nature of the assay: SPE-MS JMJD5 turnover and kinetic assay (RPS6_128–148 hydroxylation). The format is biochemical.

Assay [2] addresses T2, human KDM4E (Homo sapiens, UniProt B2RXH2).
T2 sequence (B2RXH2 1-506): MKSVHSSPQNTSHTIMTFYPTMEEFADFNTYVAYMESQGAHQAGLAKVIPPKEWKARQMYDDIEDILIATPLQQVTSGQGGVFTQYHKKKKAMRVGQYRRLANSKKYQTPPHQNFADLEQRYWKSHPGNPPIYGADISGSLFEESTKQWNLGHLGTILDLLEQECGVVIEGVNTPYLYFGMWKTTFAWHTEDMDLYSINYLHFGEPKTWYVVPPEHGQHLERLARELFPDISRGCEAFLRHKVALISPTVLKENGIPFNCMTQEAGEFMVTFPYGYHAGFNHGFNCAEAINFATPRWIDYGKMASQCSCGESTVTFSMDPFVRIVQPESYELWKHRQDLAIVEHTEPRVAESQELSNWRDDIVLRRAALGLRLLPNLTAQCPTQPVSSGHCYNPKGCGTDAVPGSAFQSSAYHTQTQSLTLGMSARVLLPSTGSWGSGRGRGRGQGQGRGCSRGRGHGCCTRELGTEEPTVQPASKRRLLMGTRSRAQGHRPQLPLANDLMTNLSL
Kind of assay: KDM4E SPE-MS turnover and kinetic assay (H3 K9(me3) peptide demethylation). The format is biochemical.

Assay [3] deals with human FIH. The note with it: FIH 0.15 μM, cited from earlier work.
In assay [4] the test system is human AspH. The note with it: AspH315–758 0.1 μM, hFX–CP101–119 substrate; cited from earlier work.
Assay [5] relates to KDM4C. Also on record: method as in PMID 21859681. The note with it: KDM4C 0.5 μM, ARTAQTARK(me3)STGGIA substrate; cited from earlier work.
The subject of assay [6] is PHD2. Also on record: method as in PMID 18952043. The note with it: PHD2 1.0 nM, biotin-[…] substrate; cited from earlier work.
The subject of assay [7] is JMJD5. The note with it: 10.0 μM JMJD5, 50 mM HEPES pH 7.5; read-out: Km JMJD5 (MALDI-TOF MS assay); cited from earlier work.

T1 sequence (Q8N371 whole entry): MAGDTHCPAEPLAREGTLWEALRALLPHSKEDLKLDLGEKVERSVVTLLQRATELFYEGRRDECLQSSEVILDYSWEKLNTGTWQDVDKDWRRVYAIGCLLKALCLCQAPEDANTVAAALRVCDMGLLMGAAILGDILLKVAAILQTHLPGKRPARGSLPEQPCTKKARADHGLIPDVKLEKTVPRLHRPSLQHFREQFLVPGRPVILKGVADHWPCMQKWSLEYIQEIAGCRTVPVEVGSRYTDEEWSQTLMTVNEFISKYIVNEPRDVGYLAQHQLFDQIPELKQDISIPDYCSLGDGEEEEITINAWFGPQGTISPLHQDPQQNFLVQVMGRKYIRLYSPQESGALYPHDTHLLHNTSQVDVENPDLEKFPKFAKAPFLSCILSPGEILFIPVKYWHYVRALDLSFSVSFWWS

For `O=C(O)CCC(=O)C(=O)O` [2OG, 2-oxoglutarate, reference compound], the v app max in assay [1] (0.15 μM JMJD5, 50 mM MOPS pH 7.5, 20 °C, 100 μM LAA present) is 0.84 ± 0.03 nM/s; in assay [2] (0.15 μM KDM4E, ARTAQTARK(me3)STGGIA 10.0 μM, 50 mM MES pH 7.0, 20 °C), 20.6 ± 1.3 nM/s. The K app m in assay [1] (0.15 μM JMJD5, 50 mM MOPS pH 7.5, 20 °C, LAA present) came out at 0.29 ± 0.04 µM; in assay [2] (0.15 μM KDM4E, ARTAQTARK(me3)STGGIA 10 μM) it was 4.2 ± 1.1 µM. Moreover, the k app cat in assay [1] (0.15 μM JMJD5, 50 mM MOPS pH 7.5, 20 °C, LAA present, calculated from vmax) was 0.0056 ± 0.0002 s⁻¹. For the same compound, the “JMJD5 (%): RPS6_128–148 hydroxylation with the compound as cosubstrate” value in assay [1] (absence of 2OG, JMJD5 0.15 μM, 2OG derivative 400 μM, Fe(II) 20 μM, RPS6_128–148 2.0 μM) is ~ 40%. In assay [1] (after 50 min, 10 μM cosubstrate, 0.15 μM JMJD5, 10 μM Fe(II), 2.0 μM RPS6_128–148), the “JMJD5-catalyzed RPS6_128–148 hydroxylation, time course” value was about 50%. Besides, the “KDM4E (%): substrate demethylation with the compound as cosubstrate” value in assay [2] (absence of 2OG, KDM4E 0.15 μM, 2OG derivative 330 μM, Fe(II) 50 μM, ARTAQTARK(me3)STGGIA 10.0 μM) is listed as ~ 70%. Also, the K m in assay [3] (HIF-1α788–822 substrate) was 0.8 ± 0.1 µM; in assay [4], 0.60 ± 0.09 µM; in assay [5], 2.6 ± 0.1 µM; in assay [6], 0.35 ± 0.03 µM; in assay [7] it was about 9.5 µM. For the same compound, the k cat in assay [3] (HIF-1α788–822 substrate) is 0.04 ± 0.01 s⁻¹; in assay [5], 0.075 ± 0.001 s⁻¹. For the same compound, the “FIH (%): substrate hydroxylation with the compound as cosubstrate” value in assay [3] (absence of 2OG, 2OG derivative 330 μM, Fe(II) 50 μM, HIF-1α788–822 5.0 μM) is given as ~ 50%.
